Counter-ions that a name gives are not always drawn.
What was measured:
[1] = molecular target: T1, CDK8/CyclinC (Homo sapiens, UniProt P49336); experiment: LanthaScreen TR-FRET binding to recombinant CDK8 in complex with Cyclin C; settings: CDK8/CyclinC 5 nM, Tracer 236 10 nm, average of several runs; read-out: CDK8-CycC IC50
T1 construct: purchased ThermoFisher PR7261B
Description: The ability of the compounds described herein to bind to the CDK8 protein was determined using the LanthaScreen method (ThermoFisher).
The measurements were conducted in a reaction volume (15 μl) using a 384-well plate (Corning, #CLS4513). CDK8/CyclinC enzyme (ThermoFisher, #PR7261B) was mixed with Anti-His-tag-Biotin antibodies (ThermoFisher, #PV6090), Streptavidin-Eu (ThermoFisher, #PV6025), and the resulting mixture was added to the wells of the plate in the amount of 5 μl per well. The final concentrations of the substances were as follows: CDK8/CyclinC—5 nM, Streptavidin-Eu—3 nM, Anti-His-tag-Biotin—3 nM. Staurosporine was used as a control inhibitor, and a 0.1% solution of dimethyl sulfoxide (DMSO) in the reaction buffer containing 250 mM HEPES (pH 7.5), 50 mM MgCl2, 5 mM EGTA, and 0.05% Brij-35 was used as a blank.
Tested inhibitors and controls were added to the corresponding wells in the amount of 5 μl per well. The plate was incubated at room temperature for 20 minutes. […] The final concentration of the tracer was 10 nm. A reaction buffer was used as a negative control instead of the tracer solution. The plate was incubated for 40 minutes at 25° C. Then the TR-FRET signal was measured on a SPARK20 plate reader (Tesap, Switzerland) according to the manufacturer's recommendations, and converted to the amount of kinase-bound tracer. The IC50 value was determined using the SparkControl Magellan 1.2 program (Tesap, Switzerland) by approximating the experimental points using a four-parameter model with the Levenberg-Marquardt optimization (Table 11).

[2] = General cytotoxicity test on HepG2 cells; assay type: cell-based; settings: human, 72 hours incubation, 200 to 0.78 μM, average of several runs, read-out: Hep-G2 CC50
Description: The CC50 value was determined in a cytotoxicity test. The experiments were performed using HepG2 cells (hepatocellular carcinoma, ATCC© HB-8065™). The cells were seeded into 96-well plates (Corning, #3599) at a concentration of ˜20×10^3 cells per 100 μl of medium per well, and incubated for 72 hours with the introduced compounds in the concentration range from 200 to 0.78 μM. Cell viability was evaluated according to the method described above.

[3] = Permeability through a monolayer of Caco-2 cells; assay type: in vitro ADME; settings: human; for Papp A→B at 2 h, 10 μM: pH 6.5 upper / pH 7.4 lower chamber, 2 h at 37° C.; for efflux ratio at 2 h, 10 μM: Papp B-A/Papp A-B
Description: Determining the permeability through a monolayer of Caco-2 cells makes it possible to assess the ability of the substances to penetrate biological membranes by means of both active and passive transport.
The intestinal epithelial cells (Caco-2) were cultured using filter inserts ([…], BD Falcon with High Density) for 21 days, after which the monolayer integrity was checked using a Lucifer Yellow dye (Sigma-Aldrich, USA) according to the standard protocol. When setting up an A→B transfer (“intestinal lumen”—“blood flow” transfer), solutions of the tested substances were introduced in pH 6.5 buffer (HBSS, 10 mM HEPES, 15 mM glucose solution) at a concentration of 10 μM into the upper chamber, while the lower chamber was filled with pH 7.4 buffer (HBSS, 10 mM HEPES, 15 mM Glucose solution, 1% BSA). When setting up a B→A transfer (“blood flow”—“intestinal lumen” transfer), the upper chamber was filled with pH 6.5 buffer, and the solutions of the tested substances were introduced in pH 7.4 buffer at a concentration of 10 μM into the lower chamber. Propranolol, which is a high permeability substance, was used as a control.
After incubation for 2 h at 37° C. in an atmosphere containing 5% CO2, the amounts of the tested substances in the upper and lower chambers were determined by the HPLC method using an Agilent1200 chromatograph (Agilent, USA) with preliminary precipitation of proteins with acetonitrile. Chromatographic analysis was performed using a gradient elution mode at a flow rate of 1 ml/min. Peak areas corresponding to the compounds were determined on chromatograms. Based on the peak area values of the compound in calibration standards, compound concentrations in the initial solution and in the samples taken from the wells of the upper and lower chambers were determined.
Permeability through a layer of cells (Papp) was calculated based on the formula:
Papp=(C(t)*V)/(C(θ)*t*Area), where
Papp is the effective permeability constant, m/s V is the solution volume (0.8 ml in the A→B test, and 0.2 ml in the B→A test), ml Area is the surface area of the membrane (0.33 cm^2), cm^2 t is the incubation time (7,200 s), s C(θ) is the concentration of the initial solution, μM C(t) is the concentration of the solution after 2 hours (in the sample from the lower chamber well (test A→B), and in the sample from the upper chamber well (test B→A)), μM.
The value was calculated using the following formula:
efflux=Papp B-A/Papp A-B, where
Papp A-B is the permeability value during direct assay (A→B); Papp B-A is the permeability value during reverse assay (B→A);

[4] = Enzymatic stability in human liver S9 fractions; assay type: in vitro ADME; settings: pooled human liver S9 fraction; 0.5 mg/ml human liver S9, 10 μm compound, 37° C., pH 7.4
Description: Determining enzymatic stability of the candidates made it possible to evaluate the resistance of the compounds of the present invention to the exposure to biotransformation enzymes.
The enzymatic decomposition rate of the compounds was determined by incubation in a solid-state thermostat at 37° C. of a reaction mixture containing 0.5 mg/ml of pooled S9 fractions of the human liver (XenoTech, USA, cat. # H0610), 10 μm compounds, 2 mM β-nicotinamide adenine dinucleotide (Carbosynth, UK, cat. # NN 10871), and 4 mM magnesium chloride in 0.1 M sodium phosphate buffer (pH=7.4). The reaction was stopped with acetonitrile based on 100 μl of acetonitrile per 100 μl of the reaction mixture. After stopping the reaction, the samples were centrifuged for 10 minutes at 10,000 rpm. The supernatant was analyzed by chromatography using an Agilent1200 chromatograph (Agilent, USA). Chromatographic analysis was performed in a gradient elution mode at a flow rate of 1 ml/min. A logarithm of the peak area of the substance was plotted versus time. The dependent coefficient of this line corresponded to the elimination rate constant (k), which was used to calculate the half-life of the drug (t1/2) and decomposition rate (CLint): […]

[5] = Chemical stability in human blood plasma; assay type: in vitro ADME; settings: pooled human blood plasma, 10 μM, 4 hours at 37° C., amount of substance remaining
Description: Chemical stability of the compounds described herein was determined in human blood plasma.
The determination of stability in human blood plasma was performed using a pooled human blood plasma taken from ten healthy donors. The initial solution of the candidate (10 mM in DMSO) was diluted with the pooled blood plasma to a concentration of 10 μM (test solution). The test solution was incubated in a solid-state thermostat for 4 hours at 37° C. The HPLC method and Agilent1200 chromatograph (Agilent, USA) were used to determine the peak areas of the compounds in the test samples corresponding to the initial test time (before incubation) and the final test time (after incubation in a solid-state thermostat for 4 hours at 37° C.) with preliminary precipitation of proteins using acetonitrile. Chromatographic analysis was performed using a gradient elution mode at a flow rate of 1 ml/min. The amount of substance in the sample expressed in % was determined after the thermostat treatment.

[6] = test system: MV4-11 cell line; experiment: Antiproliferative activity on MV4-11 cell line (AlamarBlue); assay type: cell-based; settings: Homo sapiens, 120 h incubation, average of several runs, read-out: MV-4-11 IC50
Description: The antiproliferative activity of the CDK8 inhibitors according to the present invention was measured in a cell test on a finite MV4-11 cell line (biphenotypic myelomonocytic leukemia, ATCC© CRL-9591™) using an intravital AlamarBlue dye (ThermoFisher, #DAL1100). The cells were grown on an RPMI-1640 medium (PanEco, #C330p) supplemented with 10% FBS (Gibco, #16140-071), then washed and re-seeded on a culture medium with 10% FBS (Gibco, #16140-071) in 96-well culture plates (Corning, #3599) in the amount of ˜10×10^3 cells per 100 μl of medium per well. The tested compounds were dissolved in DMSO and diluted with 10% FBS (Gibco, #16140-071) to a final concentration ranging from 0 to 100 μM. […] At the end of the incubation period, 15 μl of AlamarBlue reagent (ThermoFisher, #DAL1100) were added to the wells. The contents of the plates were mixed using an orbital shaker (Biosan, Latvia), and incubated further from 3 to 5 hours at 37° C. in an incubator with 5% C02. The number of living cells was detected using a microplate spectrophotometer (Tecan Infinite M200Pro, Switzerland) by measuring a fluorescence signal at an excitation wavelength (λEx) of 540 nm and emission wavelength (λEm) of 590 nm.
The IC50 value was determined using the Magellan 7.2 program (Tesap, Switzerland) by approximating the experimental points using a four-parameter model with the Levenberg-Marquardt optimization (Table 10).

T1 sequence (P49336 whole entry): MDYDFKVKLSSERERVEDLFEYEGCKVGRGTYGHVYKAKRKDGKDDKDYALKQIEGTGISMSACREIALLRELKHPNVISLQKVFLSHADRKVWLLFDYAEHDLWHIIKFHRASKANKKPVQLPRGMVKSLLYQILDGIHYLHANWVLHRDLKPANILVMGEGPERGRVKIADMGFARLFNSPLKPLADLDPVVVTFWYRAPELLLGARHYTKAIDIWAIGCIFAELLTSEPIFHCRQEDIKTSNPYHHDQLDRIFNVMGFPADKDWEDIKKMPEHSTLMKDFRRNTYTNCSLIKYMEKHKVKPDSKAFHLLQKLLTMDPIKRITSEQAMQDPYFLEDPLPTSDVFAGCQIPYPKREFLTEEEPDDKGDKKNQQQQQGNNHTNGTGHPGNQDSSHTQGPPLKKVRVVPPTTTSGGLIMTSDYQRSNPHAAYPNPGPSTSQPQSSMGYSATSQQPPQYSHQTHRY
T1 sequence (P24863 whole entry partner): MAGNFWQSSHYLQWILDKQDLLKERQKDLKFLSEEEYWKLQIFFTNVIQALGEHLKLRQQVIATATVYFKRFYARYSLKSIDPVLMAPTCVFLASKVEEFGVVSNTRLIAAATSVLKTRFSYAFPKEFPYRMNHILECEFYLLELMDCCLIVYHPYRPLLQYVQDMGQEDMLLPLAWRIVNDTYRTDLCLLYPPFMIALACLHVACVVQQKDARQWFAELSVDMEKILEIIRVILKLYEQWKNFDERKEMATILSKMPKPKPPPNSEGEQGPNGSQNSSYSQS

IC50 [1] [nM]	Stability in blood plasma, % [5] [%]	IC50 [6] [nM]	Stability in blood plasma, % ([5]; dihydrochloride) [%]	Structure (SMILES)	CC50 at 72 h [2] [nM]	Papp A→B at 2 h, 10 μM [3] [×10⁻⁶ cm/s]	efflux ratio at 2 h, 10 μM [3]	microsomal CLint at 10 μM [4] [µL/min/mg]
20.5	91.1	106		CN1CCN(C(=O)c2ccc3cc(CCNc4c(Cl)cnc5ccc(C#N)cc45)ccc3c2)CC1 [Compound 9, 3-chloro-4-((2-(6-(4-methylpiperazine-1-carbonyl)naphth-2-yl)ethyl)amino) quinoline-6-carbonitryl]	47300			
			87.9	CN1CCN(C(=O)c2ccc3cc(CCNc4c(Cl)cnc5ccc(C#N)cc45)ccc3c2)CC1 [Compound 9a, 3-chloro-4-((2-(6-(4-methylpiperazine-1-carbonyl)naphth-2-yl)ethyl)amino) quinoline-6-carbonitryl dihydrochloride]				
655		3300		CN1CCN(C(=O)c2ccc3cc(CCNc4ccnc5ncc(C#N)cc45)ccc3c2)CC1 [Compound 11, 5-((2-(6-(4-methylpiperazine-1-carbonyl)naphth-2-yl)ethyl)amino)-1,8-naphthyridin-3-carbonitryl]	85100			
6.54		79		CCN1CCN(C(=O)c2ccc3cc(CCNc4ccnc5ccc(C#N)cc45)ccc3c2)CC1 [Compound 12]	10600			
4.04		57		N#Cc1ccc2nccc(NCCc3ccc4cc(C(=O)N5CCOCC5)ccc4c3)c2c1 [Compound 13]	~15000			
28.5		113		N#Cc1ccc2nccc(NCCc3ccc4cc(C(=O)N5CCN(CC(F)(F)F)CC5)ccc4c3)c2c1 [Compound 17, 4-((2-(6-(4-(2,2,2-trifluoroethyl)piperazine-4-carbonyl)naphth-2-yl)ethyl)amino)quinoline-6-carbonitryl]	17900			
118		2610		CN1CCN(C(=O)c2ccc3cc(CCSc4ccnc5ccc(C#N)cc45)ccc3c2)CC1 [Compound 19, 4-((2-(6-(4-methylpiperazine-1-carbonyl)naphth-2-yl)ethyl)thio) quinoline-6-carbonitryl]	> 200000			

Second part, the compound before the results:

Structure (SMILES)	IC50 [1] [nM]	Stability in blood plasma, % [5] [%]	IC50 [6] [nM]	Stability in blood plasma, % ([5]; dihydrochloride) [%]	CC50 at 72 h [2] [nM]	Papp A→B at 2 h, 10 μM [3] [×10⁻⁶ cm/s]	efflux ratio at 2 h, 10 μM [3]	microsomal CLint at 10 μM [4] [µL/min/mg]
CN1CCN(C(=O)c2ccc3cc(CCNc4cnnc5ccc(C#N)cc45)ccc3c2)CC1 [Compound 4, 4-((2-(6-(4-methylpiperazine-1-carbonyl)naphth-2-yl)ethyl)amino) cinnoline-6-carbonitryl]	404							
CN1CCN(C(=O)c2ccc3cc(CCNc4ccnc5ccc(C#N)cc45)ccc3c2)CC1 [Compound 5, 4-((2-(6-(4-methylpiperazine-1-carbonyl)naphth-2-yl)ethyl)amino) quinoline-6-carbonitryl]	6.07	100	125		> 60000	7.1	2	7.2
CC(C)N1CCN(C(=O)c2ccc3cc(CCNc4ccnc5ccc(C#N)cc45)ccc3c2)CC1 [Compound 7]	5.77		91		8900			
CN1CCN(C(=O)c2ccc3cc(CCOc4ccnc5ccc(C#N)cc45)ccc3c2)CC1 [Compound 8, 4-(2-(6-(4-methylpiperazine-1-carbonyl)naphth-2-yl)ethoxy) quinoline-6-carbonitryl]	58.2		602		11200			
N#Cc1ccc2nccc(NCCc3ccc4cc(C(=O)N5CCNCC5)ccc4c3)c2c1 [Compound 18, 4-((2-(6-(piperazine-1-carbonyl)naphth-2-yl)ethyl)amino)quinoline-6-carbonitryl]		100	19		11600	22.4	0.3	4.4

— patent US20220098160A1, “NOVEL CDK 8/19 INHIBITORS” (BIOCAD, priority 2018, published 2022)
